Source: patent US8648038B2, “(2-aryloxyacetylamino)phenylpropionic acid derivatives, processes for preparation thereof and use thereof as medicaments” (Sanofi, priority 2010, dated 2014)

Target: T1, GPR40 (Rattus norvegicus, UniProt Q8K3T4)
T1 construct: expressed in transfected cells; host or cells: HEK293
Assay: In vitro FLIPR assay with recombinant HEK293 cells which express the GPCR GPR40 (intracellular Ca2+)
Format: cell-based
Details: recombinant HEK293 cells expressing GPR40; Fluo-4 Ca2+ signal; 100% = 10 μM linoleic acid
Description: In Vitro FLIPR Assay with Recombinant Cells which Express the GPCR GPR40
Function-testing assays were performed by means of the FLIPR technique (“Fluorescence Imaging Plate Reader”, Molecular Devices Corp.). For this purpose, agonist-induced changes were determined in the intracellular concentration of Ca^2+ in recombinant HEK293 cells which expressed the GPCR GPR40.
For the studies, cells were sown into 96-well microtiter plates (60 000 cells/well) and left to grow overnight. The medium was removed and the cells were incubated in buffer which contains the fluorescent dye Fluo-4. After this loading with dye, the cells were washed, test substance was added and changes were measured in the intracellular Ca^2+ concentration in the FLIPR instrument. Results were presented as the percentage change relative to the control (0%: no test substance added; 100%: 10 μM reference agonist linoleic acid added) and used to calculate dose/effect curves, and EC50 values were determined.

T1 sequence (Q8K3T4 whole entry): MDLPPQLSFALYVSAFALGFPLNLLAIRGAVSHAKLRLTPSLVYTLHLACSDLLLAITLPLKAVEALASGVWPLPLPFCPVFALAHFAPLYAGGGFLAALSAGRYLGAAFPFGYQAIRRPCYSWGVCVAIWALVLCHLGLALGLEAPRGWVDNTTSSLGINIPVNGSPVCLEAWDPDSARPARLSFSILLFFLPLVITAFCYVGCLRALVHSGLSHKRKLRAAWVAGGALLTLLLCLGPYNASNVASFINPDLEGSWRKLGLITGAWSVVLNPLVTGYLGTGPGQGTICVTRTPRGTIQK

SMILES	EC50
CC#CC(CC(=O)O)c1ccc(NC(=O)C(Oc2ccc(C(C)C)cc2Br)C(C)C)cc1 (stereo not drawn) [Example 9]	0.553 µM
CC#CC(CC(=O)O)c1ccc(NC(=O)C(C)Oc2cccc(C(C)C)c2)cc1 (stereo not drawn) [Example 6, 3-{4-[2-(3-Isopropylphenoxy)propionylamino]phenyl}hex-4-ynoic acid]	0.071 µM
CC#CC(CC(=O)O)c1ccc(NC(=O)C(C)Oc2cc(C(C)C)ccc2C)cc1 (stereo not drawn) [Example 5]	0.176 µM
CC#CC(CC(=O)O)c1ccc(NC(=O)C(C)Oc2cc(C)ccc2C(C)C)cc1 (stereo not drawn) [Example 4]	0.094 µM
CC#CC(CC(=O)O)c1ccc(NC(=O)C(C)(C)Oc2ccc(C(C)C)cc2Br)cc1 (stereo not drawn) [Example 8]	1.14 µM
CC#CC(CC(=O)O)c1ccc(NC(=O)C(C)(C)Oc2cccc(C(C)C)c2)cc1 (stereo not drawn) [Example 16]	0.187 µM

Other lines, results leading:

EC50	SMILES
1.16 µM	COC(CC(=O)O)c1ccc(NC(=O)C(C)(C)Oc2cccc(C(C)C)c2)cc1 (stereo not drawn) [Example 47]
10.7 µM	COC(CC(=O)O)c1ccc(NC(=O)C(C)Oc2cccc(C(C)(C)C)c2)cc1 (stereo not drawn) [Example 42]
20.8 µM	COC(CC(=O)O)c1ccc(NC(=O)C(C)(C)Oc2ccc(Cl)cc2Cl)cc1 (stereo not drawn) [Example 43]
2.13 µM	COC(CC(=O)O)c1ccc(NC(=O)C(C)Oc2cc(C)ccc2C(C)C)cc1 (stereo not drawn) [Example 40, 3-{4-[2-(2-Isopropyl-5-methylphenoxy)propionylamino]phenyl}-3-methoxypropionic Acid]
4.46 µM	CC#CC(CC(=O)O)c1ccc(NC(=O)C(C)(C)Oc2ccc(C(C)(C)C)cc2Br)cc1 (stereo not drawn) [Example 22]
5.08 µM	COC(CC(=O)O)c1ccc(NC(=O)C(C)Oc2cc(C(C)C)ccc2C)cc1 (stereo not drawn) [Example 39]
